The source of these data is patent publication US10576062B2, “Carbamoyloxymethyl triazole cyclohexyl acids as LPA antagonists” (Bristol-Myers Squibb Company, priority 2016, dated 2020).

What is called IC50 is the concentration at which inhibition is half-maximal.

The target of the first test is T1, human LPA1 (Homo sapiens, UniProt Q92633).
T1 construct: expressed in transfected cells; host or cells: Chinese hamster ovary (CHO) cells
T1 sequence (Q92633 whole entry): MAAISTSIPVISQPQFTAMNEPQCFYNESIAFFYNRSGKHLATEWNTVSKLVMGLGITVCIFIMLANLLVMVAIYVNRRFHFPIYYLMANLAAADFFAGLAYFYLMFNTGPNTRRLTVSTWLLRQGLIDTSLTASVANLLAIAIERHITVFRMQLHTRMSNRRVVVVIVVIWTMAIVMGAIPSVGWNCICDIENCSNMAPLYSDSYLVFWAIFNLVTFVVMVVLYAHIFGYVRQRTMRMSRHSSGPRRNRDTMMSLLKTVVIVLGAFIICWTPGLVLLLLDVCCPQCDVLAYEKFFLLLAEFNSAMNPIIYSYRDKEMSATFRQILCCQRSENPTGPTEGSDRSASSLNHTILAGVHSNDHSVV
Kind of test: LPA1 functional antagonist assay (LPA-induced calcium flux). It counts as cell-based. The following applies: CHO cells overexpressing human LPA1; inhibition of calcium flux induced by 10 nM LPA; read-out: hLPA1 IC50. The protocol:
The effectiveness of compounds of the present invention as LPA1 inhibitors can be determined in an LPA1 functional antagonist assay as follows: Chinese hamster ovary cells overexpressing human LPA1 were plated overnight (15,000 cells/well) in poly-D-lysine coated 384-well microplates (Greiner bio-one, Cat #781946) in DMEM/F12 medium (Gibco, Cat #11039). Following overnight culture, cells were loaded with calcium indicator dye (AAT Bioquest Inc, Cat #34601) for 30 minutes at 37° C. The cells were then equilibrated to room temperature for 30 minutes before the assay. Test compounds solubilized in DMSO were transferred to 384 well non-binding surface plates (Corning, Cat #3575) using the Labcyte Echo acoustic dispense and diluted with assay buffer [1×HBSS with calcium/magnesium (Gibco Cat #14025-092), 20 mM HEPES (Gibco Cat #15630-080) and 0.1% fatty acid free BSA (Sigma Cat #A9205)] to a final concentration of 0.5% DMSO. Diluted compounds were added to the cells by FDSS6000 (Hamamatsu) at final concentrations ranging from 0.08 nM to 5 μM. and were then incubated for 20 min at room temperature at which time LPA (Avanti Polar Lipids Cat #857130C) was added at final concentrations of 10 nM to stimulate the cells. […] IC50 values were determined by fitting data to a 4-parameter logistic equation (GraphPad Prism, San Diego Calif.).
Consider `CCC(F)CN(C)C(=O)OCc1c(-c2cnc(O[C@H]3CCC[C@H](C(=O)O)C3)c(C)n2)nnn1C` (mixture of isomers) [Example 254, (1S,3S)-3-((5-(5-((((2-fluorobutyl)(methyl)carbamoyl)oxy)methyl)-1-methyl-1H-1,2,3-triazol-4-yl)-3-methylpyrazin-2-yl)oxy)cyclohexane-1-carboxylic acid], for which the IC50 came to 132 nM.
`CCC(F)CN(C)C(=O)OCc1c(-c2ccc(O[C@H]3CCC[C@H](C(=O)O)C3)c(C)n2)nnn1C` (mixture of isomers) [Example 255, (1S,3S)-3-((6-(5-((((2-fluorobutyl)(methyl)carbamoyl)oxy)methyl)-1-methyl-1H-1,2,3-triazol-4-yl)-2-methylpyridin-3-yl)oxy)cyclohexane-1-carboxylic acid]: the IC50 is 57 nM.
On the same count and under the same terms, the result for `Cc1nc(-c2nnn(C)c2COC(=O)N(C)CC2CCC2)ccc1O[C@H]1CCC[C@](F)(C(=O)O)C1` (racemic) [Example 11, (rac)-3-((6-(5-((((cyclobutylmethyl)(methyl)carbamoyl)oxy)methyl)-1-methyl-1H-1,2,3-triazol-4-yl)-2-methylpyridin-3-yl)oxy)-1-fluorocyclohexane-1-carboxylic Acid] reads 12 nM.
On to `Cc1nc(-c2nnn(C)c2COC(=O)N(C)CC2CCC2)ccc1O[C@H]1CCC[C@](F)(C(=O)O)C1` (single isomer, unassigned) [Example 13, 3-((6-(5-((((cyclobutylmethyl)(methyl)carbamoyl)oxy)methyl)-1-methyl-1H-1,2,3-triazol-4-yl)-2-methylpyridin-3-yl)oxy)-1-fluorocyclohexane-1-carboxylic Acid], for which the IC50 turned out to be 95 nM.

Still in this test, the particulars now being: human LPA1; read-out: hLPA1 IC50.
Regarding `CCC1CCN(C(=O)OCc2c(-c3ccc(O[C@H]4CCC[C@H](C(=O)O)C4)c(C)n3)nnn2C)C1` (mixture of isomers) [Example 165, (1S,3S)-3-((6-(5-(((3-ethylpyrrolidine-1-carbonyl)oxy)methyl)-1-methyl-1H-1,2,3-triazol-4-yl)-2-methylpyridin-3-yl)oxy)cyclohexane-1-carboxylic acid], the concentration for half-maximal inhibition (IC50) turned out to be 102 nM.
As to `CCCC1CCN(C(=O)OCc2c(-c3ccc(O[C@H]4CCC[C@H](C(=O)O)C4)c(C)n3)nnn2C)C1` (mixture of isomers) [Example 166, (1S,3S)-3-((2-methyl-6-(1-methyl-5-(((3-propylpyrrolidine-1-carbonyl)oxy)methyl)-1H-1,2,3-triazol-4-yl)pyridin-3-yl)oxy)cyclohexane-1-carboxylic acid], the IC50 is 109 nM.
Same read-out and setting: the value for `Cc1nc(-c2nnn(C)c2COC(=O)N2CCC(c3ccccc3)C2)ccc1O[C@H]1CCC[C@H](C(=O)O)C1` (mixture of isomers) [Example 169, (1S,3S)-3-((2-methyl-6-(1-methyl-5-(((3-phenylpyrrolidine-1-carbonyl)oxy)methyl)-1H-1,2,3-triazol-4-yl)pyridin-3-yl)oxy)cyclohexane-1-carboxylic acid] was 336 nM; that for `Cc1nc(-c2nnn(C)c2COC(=O)N(C)C2CC(F)C2)ccc1O[C@H]1CCC[C@H](C(=O)O)C1` (mixture of isomers) [Example 182, (1S,3S)-3-((6-(5-((((3-fluorocyclobutyl)(methyl)carbamoyl)oxy)methyl)-1-methyl-1H-1,2,3-triazol-4-yl)-2-methylpyridin-3-yl)oxy)cyclohexane-1-carboxylic acid] was 61 nM.
In the case of `Cc1nc(-c2nnn(C)c2COC(=O)N(C)CC2CC2(C)C)ccc1O[C@H]1CCC[C@H](C(=O)O)C1` (mixture of isomers) [Example 184, (1S,3S)-3-((6-(5-(((((2,2-dimethylcyclopropyl)methyl)(methyl)carbamoyl)oxy)methyl)-1-methyl-1H-1,2,3-triazol-4-yl)-2-methylpyridin-3-yl)oxy)cyclohexane-1-carboxylic acid], the 50% inhibitory concentration (IC50) came to 37 nM.
Still for that read-out and setting: the result for `CN(CC1CC1(C)C)C(=O)OCc1c(-c2ccc(O[C@H]3CCC[C@H](C(=O)O)C3)cn2)nnn1C` (mixture of isomers) [Example 185, (1S,3S)-3-((6-(5-(((((2,2-dimethylcyclopropyl)methyl)(methyl)carbamoyl)oxy)methyl)-1-methyl-1H-1,2,3-triazol-4-yl)pyridin-3-yl)oxy)cyclohexane-1-carboxylic acid] reads 86 nM; that for `CN(CC1CC1(F)F)C(=O)OCc1c(-c2ccc(O[C@H]3CCC[C@H](C(=O)O)C3)cn2)nnn1C` (mixture of isomers) [Example 186, (1S,3S)-3-((6-(5-(((((2,2-difluorocyclopropyl)methyl)(methyl)carbamoyl)oxy)methyl)-1-methyl-1H-1,2,3-triazol-4-yl)pyridin-3-yl)oxy)cyclohexane-1-carboxylic acid], 67 nM.

Still in this test, the particulars now being: read-out: hLPA1 IC50.
Turning to `CN(C(=O)OCc1c(-c2ccc(O[C@H]3CCC[C@H](C(=O)O)C3)cn2)nnn1C)C1CCCC1` (racemic) [Example 18, (rac)-3-((6-(5-(((cyclopentyl(methyl)carbamoyl)oxy)methyl)-1-methyl-1H-1,2,3-triazol-4-yl)pyridin-3-yl)oxy)cyclohexane-1-carboxylic acid], the IC50 was found to be 21 nM.
Regarding `CN(CCC1CC1)C(=O)OCc1c(-c2ccc(O[C@H]3CCC[C@H](C(=O)O)C3)cc2)nnn1C` (racemic) [Example 55, (rac)-trans-3-(4-(5-((((2-cyclopropylethyl)(methyl)carbamoyl)oxy)methyl)-1-methyl-1H-1,2,3-triazol-4-yl)phenoxy)cyclohexane-1-carboxylic acid], the IC50 amounted to 41 nM.
On the same count and under the same terms, the result for `CCCCCN(C)C(=O)OCc1c(-c2ccc(O[C@H]3CCC[C@H](C(=O)O)C3)cc2)nnn1C` (racemic) [Example 58, (rac)-trans-3-(4-(1-methyl-5-(((methyl(pentyl)carbamoyl)oxy)methyl)-1H-1,2,3-triazol-4-yl)phenoxy)cyclohexane-1-carboxylic acid] reads 250 nM.
Take `CCCN(C)C(=O)OCc1c(-c2ccc(O[C@H]3CCC[C@H](C(=O)O)C3)cc2)nnn1C` (racemic) [Example 59, (rac)-trans-3-(4-(1-methyl-5-(((methyl(propyl)carbamoyl)oxy)methyl)-1H-1,2,3-triazol-4-yl)phenoxy)cyclohexane-1-carboxylic acid]: the IC50 was found to be 1880 nM.
On the same count and under the same terms, the value for `CN(Cc1ccccc1)C(=O)OCc1c(-c2ccc(O[C@H]3CCC[C@H](C(=O)O)C3)cc2)nnn1C` (racemic) [Example 60, (rac)-trans-3-(4-(5-(((benzyl(methyl)carbamoyl)oxy)methyl)-1-methyl-1H-1,2,3-triazol-4-yl)phenoxy)cyclohexane-1-carboxylic acid] was 130 nM; that for `CN(CC1CC1)C(=O)OCc1c(-c2ccc(O[C@H]3CCC[C@H](C(=O)O)C3)cc2)nnn1C` (racemic) [Example 61, (rac)-trans-3-(4-(5-((((cyclopropylmethyl)(methyl)carbamoyl)oxy)methyl)-1-methyl-1H-1,2,3-triazol-4-yl)phenoxy)cyclohexane-1-carboxylic acid] was 273 nM.
With `CCCCN(C)C(=O)OCc1c(-c2ccc(O[C@H]3CCC[C@H](C(=O)O)C3)cc2)nnn1C` (racemic) [Example 64, (rac)-trans-3-(4-(5-(((butyl(methyl)carbamoyl)oxy)methyl)-1-methyl-1H-1,2,3-triazol-4-yl)phenoxy)cyclohexane-1-carboxylic acid], the IC50 is 32 nM.
Turning to `Cc1nc(-c2nnn(C)c2COC(=O)N(C)C2CCCC2)ccc1O[C@H]1CCC[C@](F)(C(=O)O)C1` (racemic) [Example 88], the 50% inhibitory concentration (IC50) turned out to be 32 nM.
Regarding `CN(C(=O)OCc1c(-c2ccc(O[C@H]3CCC[C@](F)(C(=O)O)C3)cn2)nnn1C)C1CCCC1` (racemic) [Example 89], the IC50 came to 32 nM.
Same read-out and setting: the result for `CN(CC1CCC1)C(=O)OCc1c(-c2ccc(O[C@H]3CCC[C@](F)(C(=O)O)C3)cn2)nnn1C` (racemic) [Example 90] reads 14 nM; that for `CC(C1CCC1)N(C)C(=O)OCc1c(-c2ccc(O[C@H]3CCC[C@H](C(=O)O)C3)cc2)nnn1C` (single isomer, unassigned) [Example 48], 8 nM.
`CC(C1CCC1)N(C)C(=O)OCc1c(-c2ccc(O[C@H]3CCC[C@H](C(=O)O)C3)cc2)nnn1C` (single isomer, unassigned) [Example 49]: the half-inhibitory concentration (IC50) came out at 14 nM.
Consider `CC(C1CCC1)N(C)C(=O)OCc1c(-c2ccc(O[C@H]3CCC[C@H](C(=O)O)C3)cc2)nnn1C` (single isomer, unassigned) [Example 67, trans-3-(4-(5-((((1-cyclobutylethyl)(methyl)carbamoyl)oxy)methyl)-1-methyl-1H-1,2,3-triazol-4-yl)phenoxy)cyclohexane-1-carboxylic acid], for which the IC50 was 109 nM.
As for `Cc1nc(-c2nnn(C)c2COC(=O)N(C)C2(C)CC(C)C2)ccc1O[C@H]1CCC[C@H](C(=O)O)C1` (single isomer, unassigned) [Example 106], the IC50 came to 67 nM.
`Cc1nc(-c2nnn(C)c2COC(=O)N(C)C2(C)CC(C)C2)ccc1O[C@H]1CCC[C@H](C(=O)O)C1` (single isomer, unassigned) [Example 107]: the IC50 was 70 nM.
